According to patent US20160021879A1, “SYNTHETIC LIPOAMINO ACID GLUCOSAMINE DERIVATIVES FOR IMPROVEMENT OF PLANT GROWTH AND YIELD” (E.I. DU PONT DE NEMOURS AND COMPANY, priority 2013, published 2016):

What was measured:
soybean seeds [1] = test: Seed germination assay (soybean seeds in Petri dishes, radicle emergence counted); assay type: in vivo; conditions: control 24%; for percent germination of treated soybean seeds: 10^-7 M in DI-water, at 20 h, dark, room temperature; for Germination Yield: summary table, 10^-7 M, 20 h
Method: Materials were all sterilized before use. An aqueous solution of the test compound (25 mL, 10^−7 M in DI-water) was prepared for a set of five repeat experiments. Five Petri dishes and 100 soybean seeds were used to test one compound. A piece of Whatman filter paper was used to cover the inner side of each Petri dish to allow uniform distribution of testing solution. Twenty soybean seeds were placed on the filter paper area of one Petri dish. Five mL of the test compound solution was carefully poured in the Petri dish. Control experiments were set up the same way with 20 soybean seeds and 5 mL of DI-water per dish without any compounds. The lid was placed on the Petri dish and sealed with Parafilm. Five dishes with repeat experiments were stacked. One stack of dishes was wrapped twice with aluminum foil to prevent the seeds from receiving any light. The stacks were transferred to an incubator maintained at room temperature and the seeds were germinated in the dark. After 20 h, the stacks were pulled out for measurement. The number of germinated seeds was counted and the percent germination on each dish was calculated. Radicle emergence was used as the germination indicator. The dishes were placed unwrapped at room temperature for one day and the number of germinated seeds was counted to ensure seeds were viable and that the germination results were not caused by poor seed quality. Dishes in which over 90% of the seeds germinated were considered normal. The standard deviation of five repeats was calculated. Test results with a 10% or lower standard deviation were considered good. Compounds acting as plant performance enhancers should promote a statistically significant increase in average percentage of germination compared to the control.

soybean seeds [2] = test: Plant growth assay (radical length of germinated soybean seeds); assay type: in vivo; conditions: control 55%; for percentage of germinated soybean seeds with radical length greater than 1.5 cm: 10^-7 M, germinated 24 h, then light for additional 40 h; for Growth Assay: summary table, seeds with radical length > 1.5 cm
Method: Seeds germinated for 24 h using the seed germination assay above were exposed to light for an additional 40 h. The radical length was measured and the percentage of germinating seeds with a radical length greater than 1.5 cm was determined.

SMILES	percent germination of treated soybean seeds (soybean seeds [1]) [%]	Germination Yield (soybean seeds [1]) [%]	percentage of germinated soybean seeds with radical length greater than 1.5 cm (soybean seeds [2]) [%]	Growth Assay (soybean seeds [2]) [%]
CO[C@@H]1O[C@H](CO)[C@@H](O)[C@H](O)[C@H]1NC(=O)[C@H](Cc1ccccc1)NC(=O)/C=C/C=C/c1ccccc1 [Compound 13, Methyl 2-deoxy-2-({N-[(2E,4E)-5-phenylpenta-2,4-dienoyl]phenylalanyl}amino)-β-D-glucopyranoside]	32	32	80	80
COC1OC(CO)C(O)C(O)C1NC(=O)CNC(=O)C#Cc1ccccc1 [Compound 19, Methyl 2-deoxy-2-N-({[(3-phenylprop-2-ynoyl)amino]acetyl}amino)-β-D-glucopyranoside]	30	30	71	71
CCCCCC/C=C/CCCCCCC/C=C/C(=O)NCC(=O)NC1C(OC2C(CO)OC(OC3C(CO)OC(OC4C(CO)OC(OC)C(NC(C)=O)C4O)C(NC(C)=O)C3O)C(NC(C)=O)C2O)OC(CO)C(O)C1O [Compound 21, Methyl 2-deoxy-2-N-({[(2E,11E)-octadeca-2,11-dienoylamino]acetyl}amino)β-D-glucopyranosyl(1→4)-2-acetamido-2-deoxy-β-D-glucopyranosyl-(1→4)-2 acetamido-2-deoxy-β-D-glucopyranosyl-(1→4)-2 acetamido-2-deoxy-β-D-glucopyranoside]	36	36	73	73
CCCCCC/C=C\CCCCCCC/C=C/C(=O)NCC(=O)NC1C(OC)OC(CO)C(O)C1O (centres unmarked) [Compound 7, methyl 2-deoxy-2-({[(2E,11Z)-octadeca-2,11-dienoylamino]acetyl}amino)hexopyranoside]	46	46	79	79
CCCCCC/C=C\CCCCCCCC(=O)NCC(=O)NC1C(OC)OC(CO)C(O)C1O [Compound 9, Methyl 2-deoxy-2-N-({[(9Z)-hexadec-9-enoylamino]acetyl}amino)-β-D-glucopyranoside]	33	33	73	73
CO[C@@H]1O[C@H](CO)[C@@H](O)[C@H](O)[C@H]1NC(=O)CNC(=O)/C=C/C=C/c1ccccc1 [Compound 11, methyl 2-deoxy-2-[({[(2E,4E)-5-phenylpenta-2,4-dienoyl]amino}acetyl)amino]-β-D-glucopyranoside]	39	39	82	82
CO[C@@H]1O[C@H](CO)[C@@H](O)[C@H](O)[C@H]1NC(=O)CNC(=O)/C=C/c1cccc(C(F)(F)F)c1 [Compound 17, methyl 2-deoxy-2-{[({(2E)-3-[3-(trifluoromethyl)phenyl]prop-2-enoyl}amino)acetyl]amino}-β-D-glucopyranoside]	44	44	86	86
COC(=O)C(CCC(=O)NC1C(OC)OC(CO)C(O)C1O)NC(=O)/C=C/C=C/c1ccccc1 (centres unmarked) [Compound 15, methyl 5-{[4,5-dihydroxy-6-(hydroxymethyl)-2-methoxytetrahydro-2H-pyran-3-yl]amino}-5-oxo-2-{[(2E,4E)-5-phenylpenta-2,4-dienoyl]amino}pentanoate]	31	31	74	74
